The text below walks through data of patent US11396664B2, “Replicative transposon system” (Max-Delbrück-Centrum für Molekulare Medizin in der …, priority 2016, dated 2022).

The test system of this experiment is Helraiser transposase, wild type (WT), SEQ ID NO: 1, consensus Helibat1 Helitron transposase from the bat Myotis lucifugus. In words: Colorimetric ATPase assay (ATP hydrolysis, malachite green). The format is biochemical. Particulars: purified transposase; 50 mM HEPES pH 7.5, 100 mM NaCl, 1 mM DTT, 2 mM MgCl2, 37° C; ATP 0.0078 to 1 mM. Here is the method:
Protein Expression and Purification
Point mutations were made using the QuikChange site-directed mutagenesis method (Agilent). Baculovirus production and protein expression were performed by the Protein Expression Laboratory at the National Cancer Institute as follows:
Cell pellets were resuspended in Nickel affinity column binding buffer (20 mM NaH2PO4 pH 7.4, 500 mM NaCl, 50 mM imidazole, 1 mM TCEP). All subsequent steps were performed at 4° C. Lysis was done by incubating the cells on ice for 30 minutes, then sonication with a Misonix Sonicator 3000 (5×20-sec pulses with 3 minute pause at 82 Watts). […]
ATP hydrolysis was analyzed by measuring the formation of free phosphate (Pi) as a function of time using procedures adapted from Baykov et al. (Baykov A A, Evtushenko O A, Avaeva S M. A malachite green procedure for orthophosphate determination and its use in alkaline phosphatase-based enzyme immunoassay. Anal Biochem 171, 266-270 (1988)). […] An aliquot (150 μl) of a 1 mM malachite green stock solution was added to each well, and the absorbance at 650 nm was measured using a Molecular Devices Spectramax M5 microplate reader. The amount of phosphate released was calculated by comparison to a standard curve generated using KH2PO4. […]

With `Nc1ncnc2c1ncn2[C@@H]1O[C@H](COP(=O)(O)OP(=O)(O)OP(=O)(O)O)[C@@H](O)[C@H]1O` [ATP], the Km turned out to be 46 µM and the “kcat (ATP hydrolysis)” value came out at 6.8 ± 0.11 s⁻¹.

One may read the Km as the substrate concentration at which the rate is half of its maximum.
